{"source": "patent US10092620B2", "about": "“Uses of cyclic peptides for treating and preventing atherosclerosis” (THE SCRIPPS RESEARCH INSTITUTE, priority 2013, dated 2018)", "key": {"[1]": {"test_system": "plasma HDL", "test": "in vivo plasma HDL remodeling after intraperitoneal injection (Western blotting for mouse apoA-I)", "settings": "male BALB/c mice (n=3), i.p. 20 mg/kg; FIG. 3a; 20 mg/kg", "description": "To ascertain if the cyclic D,L-α-peptides function in vivo as modulators of HDL, we administered 1 to mice (BALB/c, n=3) via intraperitoneal injection (i.p.) at a dose of 20 mg/kg. After various times, blood was drawn and the plasma was analyzed by Western blotting to determine the levels of the HDL subpopulations.\nIn vivo plasma remodeling: Cyclic peptide c[wLwReQeR], 1, was dissolved in 10% sucrose, and sterile filtered through a 0.22-μm syringe filter before injection. Mice were fasted beginning 12 h before dosing, and continued the fast until after the 8-h time point blood draw was completed. Groups of three mice received a 20 mg/kg dose of the cyclic peptide via intraperitoneal injection (0.3 mL). Blood was drawn (30-60 μL) from the retro-orbital sinus into a heparinized capillary tube before dosing (0 min) and at different intervals from 30 min to 8 h after dosing. Plasma was isolated immediately from the whole blood by centrifugation at 5000 rpm for 10 min at 4° C., after which 10 μL of plasma were mixed with 90 μL of 50% sucrose, vortexed for 30 s, and stored at 4° C. until all time points had been collected (samples were stored from 0-8 h). Samples were then mixed with 20 μL of 6× native loading buffer (125 mM tris, pH 6.8, 0.02% bromophenol, 20% glycerol). 6 μL of these samples were loaded onto a 4-20% polyacrylamide gel. Gels were run at constant 80 V at 4° C. for 14 h using a Laemli buffer system (25 mM tris, 192 mM glycine, pH 8.3). Gels were then blotted onto nitrocellulose membranes (0.45 μm, Bio-Rad) at constant 30 V at 4° C. for 2 h using the Laemli buffer (no methanol). The membrane was blocked with 5% non-fat dry milk (NFDM) in TBST (20 mM tris, 150 mM NaCl, pH 7.6, 0.1% Tween-20) for 1 h at 23° C., and then washed once for 10 min with TBST. […]\nIn vivo plasma HDL remodeling activities of some of the peptides were also analyzed. […] Results shown in the figure were determined by Western blotting for mouse apoA-I."}, "[2]": {"test": "mouse pharmacokinetics, i.p., LC-MS SIM", "assay_type": "in vivo", "settings": "male, BALB/cByJ, plasma, ip, BALB/c mice, i.p. 16 mg/kg", "description": "Pharmacokinetics: The TSRI Institutional Animal Care and Use Committee approved all experimental protocols involving live animals. Male mice (20 g) on a BALB/cByJ background were obtained from the Rodent Breeding Colony of the Department of Animal Resources at TSRI, and were maintained on a chow diet. The cyclic peptide c[wLwReQeR], 1, was dissolved in PBS containing 1% sucrose, and sterile filtered through a 0.22-μm syringe filter before injection. Mice were fasted beginning 12 h before dosing, and continued the fast until after the 8-h time point blood draw was completed. Groups of three mice received a 16-mg/kg dose of the cyclic peptide via intraperitoneal injection (0.3 mL). Blood was drawn (30-60 μL) from the retro-orbital sinus into a heparinized capillary tube before dosing (0 min) and at different intervals from 30 min to 8 h after dosing. Plasma was isolated immediately from the whole blood by centrifugation at 5000 rpm for 10 min at 4° C. […] The resultant supernatant was analyzed by using LC-MS SIM as described below.\nLC-MS SIM quantitation of peptide concentration: Cyclic peptide concentrations were quantified by using reverse-phase HPLC coupled with mass spectrometry. […] For quantitative calibration, standard curves were established using mouse EDTA-anticoagulated plasma spiked with various concentrations of the peptide. […]"}, "[3]": {"test": "body, liver and spleen weights, food and water intake", "assay_type": "in vivo, mouse", "settings": "oral ~25 mg/kg/day, 10 weeks, LDLr-null mice", "description": "Body weight was measured weekly. Mice were weighed prior to fasting. Liver and spleen weights were determined at the end of treatment."}}, "note": "“Also recorded” adds a separate entry of the source. Non-standard residues stand in square brackets, D forms with d. Residues, ends and D or L forms follow the SMILES beside them."}
{"smiles": "CC(C)C[C@@H]1NC(=O)[C@@H](Cc2c[nH]c3ccccc23)NC(=O)[C@H](CCCNC(=N)N)NC(=O)[C@@H](CCC(=O)O)NC(=O)[C@H](CCC(N)=O)NC(=O)[C@@H](CCC(=O)O)NC(=O)[C@H](CCCNC(=N)N)NC(=O)[C@@H](Cc2c[nH]c3ccccc23)NC1=O", "note": "[SEQ ID NO:1, c[wLwReQeR]] (cyclo([dW]L[dW]R[dE]Q[dE]R))", "values": [{"measurement": "level of lipid-poor HDL in plasma", "setting": "[1]", "value": "marked increase in the amount of lipid-poor HDL for up to 8 h; also recorded: increased the level of lipid-poor HDL"}, {"measurement": "half-life", "setting": "[2]", "value": "~2", "unit": "h"}, {"measurement": "body weight, difference between groups", "setting": "[3]", "value": "No differences"}, {"measurement": "food or water intake, difference between groups", "setting": "[3]", "value": "No differences"}, {"measurement": "liver weight, difference between groups", "setting": "[3]", "value": "No differences"}, {"measurement": "spleen weight, difference between groups", "setting": "[3]", "value": "No differences"}]}
